This is an account of results in patent US20170049782A1 (SK CHEMICALS CO., LTD., priority 2014, published 2017).

Like-named read-outs stand apart in the source and are kept apart here.

For series [1] the following is noted: cited from earlier work.
Series [2] is described as follows: Solubility / dissolved fraction of active ingredient (I) in water (background). The class given is physicochemical. An excerpt:
At single administration and repetitive administration, there is a difference in blood concentration depending on whether taking food or not, and food intake is blamed for causing the difference (Xia et al., British Journal of Clinical Pharmacology, 2009, 68:1, p 77-88). This is a reason for decrease of drug efficacy to patients taking food irregularly, and a negative cause, which may make patients feel uncomfortable for taking drug. […] Thus, its bioavailability reach to 100% when it is administered with food because residual insoluble drugs are absorbed by oil content present in the food and a surfactant such as bile acid secreted in the body (Samama et al. Thrombosis Journal 2013, 11:11, p 1-7).

One may read the bioavailability as dose-corrected exposure relative to a reference, in per cent. With `O=C(NC[C@H]1CN(c2ccc(N3CCOCC3=O)cc2)C(=O)O1)c1ccc(Cl)s1` [active ingredient (I)], the bioavailability is recorded as 100% in series [1] (10 mg, regardless of a meal); “about 66%” in series [1] (20 mg, administered before a meal / under fasted condition); 100% in series [1] (20 mg, administered with food). Besides, the results for the “drug dissolved in dissolution solution” value in series [2] (10 mg in 900 ml) and in series [2] (20 mg in 900 ml) were no less than 90% and 50%, respectively.
